{
  "source": "patent US10085990B2",
  "about": "“Tricyclic compounds as modulators of TNF-α synthesis and as PDE4 inhibitors” (vTv Therapeutics LLC, priority 2008, dated 2018)",
  "note": "pIC50: −log10 of the molar value.",
  "data": [
    {"tested_on": "TNF synthesis in human PBMC", "test": "Human PBMC TNF Synthesis Assay", "format": "cell-based", "conditions": "LPS-stimulated human PBMC, overnight incubation, TNF ELISA; read-out: TNF inhib.", "procedure": "Human PBMC TNF Synthesis Assay\nHuman PBMC were obtained by from a healthy human donor leuko pak. Typically, all donors were pre-screened for STD, HIV and have been given a physical by a physician. One to two ampoules were thawed at 37° C. and then resuspended in 45 to 85 mL of RPMI+10% FBS to a final concentration of 2.5×10^6 cells/mL. Resuspended cells were filtered to remove any large clumps.\nPrepare compounds for addition to cells: All compounds were DMSO stocks at 20 mM. Working stock for cell testing were prepared as 4× concentrated material in RPMI+10% FBS. Compounds were added to a polypropylene block and then diluted with the appropriate amount of RPMI+10% FBS. Typically 2.6 μL of 20 mM stock was diluted to 650 μL final volume to yield an 80 μM starting concentration in the stocks. RPMI was added to DMSO stock by pipetting into the tube or block. The compounds were then serial diluted with RPMI+10% FBS. The final DMSO concentrations were not greater than 0.5% in the assay.\nCompounds were added to the cells as 4× working stock. 50 μL of compound was prepared above is added to the cells and re-equilibrated in a humidified 5% CO2 incubator at 37° C. for 30 minutes.\nA stock of LPS was prepared using RPMI+10% FBS. To prepare the stock, 2.8 μL of LPS (5 mg/mL; Sigma Cat #L3024) was added to 35 mL of media. 50 μL of the LPS in media was added to the cells. Control cultures without LPS received only RPMI+10% FBS. After an overnight incubation at 37° C., the cell culture supernatant was harvested and stored in a polypropylene 96 well plate.\nSamples were tested for TNF as per the manufacturer's instructions (TNF ELISA; R&D Systems, Cat #DY210). The samples were serially diluted with PBS+1% BSA to the appropriate dilution condition for the cell prep, typically a 1:4 or 1:6 dilution.", "values": [
      {"smiles": "CCn1c(=O)c2cnc3c(OC)cccc3c2n(C2CCCC2)c1=O", "note": "[Example 1, 1-cyclopentyl-3-ethyl-7-methoxy-1H-pyrimido[5,4-c]quinoline-2,4-dione]", "pIC50": 6.74},
      {"smiles": "CCn1c(=O)c2cnc3c(OC)cccc3c2n(-c2ccc(OC)c(OC)c2)c1=O", "note": "[Example 4, 1-(3,4-Dimethoxy-phenyl)-3-ethyl-7-methoxy-1H-pyrimido[5,4-c]quinoline-2,4-dione]", "pIC50": 4.85},
      {"smiles": "COc1cccc2c1ncc1c(=O)n(C(C)C)c(=O)n(C3CCCC3)c12", "note": "[Example 5, 1-Cyclopentyl-3-isopropyl-7-methoxy-1H-pyrimido[5,4-c]quinoline-2,4-dione]", "pIC50": 6.57},
      {"smiles": "COc1cccc2c1ncc1c(=O)n(-c3cccs3)c(=O)n(C3CCCC3)c12", "note": "[Example 10, 1-Cyclopentyl-7-methoxy-3-thiophen-2-yl-1H-pyrimido[5,4-c]quinoline-2,4-dione]", "pIC50": 6.39},
      {"smiles": "CCCn1c(=O)n(CC)c(=O)c2cnc3c(OC)cccc3c21", "note": "[Example 16, 3-Ethyl-7-methoxy-1-propyl-1H-pyrimido[5,4-c]quinoline-2,4-dione]", "pIC50": 6.17},
      {"smiles": "CCCCn1c(=O)n(CC)c(=O)c2cnc3c(OC)cccc3c21", "note": "[Example 17, 1-Butyl-3-ethyl-7-methoxy-1H-pyrimido[5,4-c]quinoline-2,4-dione]", "pIC50": 6.41},
      {"smiles": "CCn1c(=O)c2cnc3c(OC)cccc3c2n(CC(C)C)c1=O", "note": "[Example 18, 3-Ethyl-1-isobutyl-7-methoxy-1H-pyrimido[5,4-c]quinoline-2,4-dione]", "pIC50": 5.96},
      {"smiles": "CCn1c(=O)c2cnc3c(OC)cc(Cl)cc3c2n(C2CCCC2)c1=O", "note": "[Example 28, 9-Chloro-1-cyclopentyl-3-ethyl-7-methoxy-1H-pyrimido[5,4-c]quinoline-2,4-dione]", "pIC50": 5.46},
      {"smiles": "CCn1c(=O)c2cnc3c(Cl)cccc3c2n(C2CCCC2)c1=O", "note": "[Example 30, 7-Chloro-1-cyclopentyl-3-ethyl-1H-pyrimido[5,4-c]quinoline-2,4-dione]", "pIC50": 5.60},
      {"smiles": "CCCc1cccc2c1ncc1c(=O)n(CC)c(=O)n(C3CCCC3)c12", "note": "[Example 32, 1-Cyclopentyl-3-ethyl-7-propyl-1H-pyrimido[5,4-c]quinoline-2,4-dione]", "pIC50": 5.59},
      {"smiles": "CCn1c(=O)c2cnc3c(C(C)C)cccc3c2n(C2CCCC2)c1=O", "note": "[Example 33, 1-Cyclopentyl-3-ethyl-7-isopropyl-1H-pyrimido[5,4-c]quinoline-2,4-dione]", "pIC50": 4.70},
      {"smiles": "CCn1c(=O)c2cnc3c(OC(F)(F)F)cccc3c2n(C2CCCC2)c1=O", "note": "[Example 34, 1-Cyclopentyl-3-ethyl-7-trifluoromethoxy-1H-pyrimido[5,4-c]quinoline-2,4-dione]", "pIC50": 5.44},
      {"smiles": "CCn1c(=O)c2cnc3c(OC)cccc3c2n(C(C)C)c1=O", "note": "[Example 37, 3-Ethyl-1-isopropyl-7-methoxy-1H-pyrimido[5,4-c]quinoline-2,4-dione]", "pIC50": 4.70},
      {"smiles": "CCC(C)n1c(=O)c2cnc3c(OC)cccc3c2n(C2CCCC2)c1=O", "note": "(stereo not drawn) [Example 38, 3-sec-Butyl-1-cyclopentyl-7-methoxy-1H-pyrimido[5,4-c]quinoline-2,4-dione]", "pIC50": 6.35},
      {"smiles": "COc1cccc2c1ncc1c(=O)n(-c3ccccc3)c(=O)n(C3CCCC3)c12", "note": "[Example 39, 1-Cyclopentyl-7-methoxy-3-phenyl-1H-pyrimido[5,4-c]quinoline-2,4-dione]", "pIC50": 5.89},
      {"smiles": "CCn1c(=O)c2cnc3c(C)cccc3c2n(C2CCCC2)c1=O", "note": "[Example 41, 1-Cyclopentyl-3-ethyl-7-methyl-1H-pyrimido[5,4-c]quinoline-2,4-dione]", "pIC50": 6.30},
      {"smiles": "CCn1c(=O)c2cnc3c(OC)cccc3c2n(C2CCC(C)CC2)c1=O", "note": "(stereo not drawn) [Example 45, 3-Ethyl-7-methoxy-1-(4-methyl-cyclohexyl)-1H-pyrimido[5,4-c]quinoline-2,4-dione]", "pIC50": 6.70},
      {"smiles": "CCOC(=O)Cn1c(=O)c2cnc3c(OC)cccc3c2n(C2CCCC2)c1=O", "note": "[Example 46, (1-Cyclopentyl-7-methoxy-2,4-dioxo-1,4-dihydro-2H-pyrimido[5,4-c]quinolin-3-yl)-acetic acid ethyl ester]", "pIC50": 6.00},
      {"smiles": "COc1cccc2c1ncc1c(=O)n(C)c(=O)n(C3CCCC3)c12", "note": "[Example 48, 1-Cyclopentyl-7-methoxy-3-methyl-1H-pyrimido[5,4-c]quinoline-2,4-dione]", "pIC50": 5.85},
      {"smiles": "COc1cccc2c1ncc1c(=O)n(-c3cc(C)cs3)c(=O)n(C3CCCC3)c12", "note": "[Example 51, 1-Cyclopentyl-7-methoxy-3-(4-methyl-thiophen-2-yl)-1H-pyrimido[5,4-c]quinoline-2,4-dione]", "pIC50": 7.52},
      {"smiles": "COc1cccc2c1ncc1c(=O)n(-c3cccc(C)c3)c(=O)n(C3CCCC3)c12", "note": "[Example 54, 1-Cyclopentyl-7-methoxy-3-m-tolyl-1H-pyrimido[5,4-c]quinoline-2,4-dione]", "pIC50": 8.22},
      {"smiles": "COc1cccc2c1ncc1c(=O)n(-c3ccc(C)cc3)c(=O)n(C3CCCC3)c12", "note": "[Example 55, 1-Cyclopentyl-7-methoxy-3-p-tolyl-1H-pyrimido[5,4-c]quinoline-2,4-dione]", "pIC50": 6.79},
      {"smiles": "COc1cccc2c1ncc1c(=O)n(-c3cccc(Cl)c3)c(=O)n(C3CCC(C)CC3)c12", "note": "(stereo not drawn) [Example 72, 3-(3-Chloro-phenyl)-7-methoxy-1-(4-methyl-cyclohexyl)-1H-pyrimido[5,4-c]quinoline-2,4-dione]", "pIC50": 8.40},
      {"smiles": "COc1cccc2c1ncc1c(=O)n(-c3cccc(Cl)c3)c(=O)n(C3CCCC3)c12", "note": "[Example 73, 3-(3-Chloro-phenyl)-1-cyclopentyl-7-methoxy-1H-pyrimido[5,4-c]quinoline-2,4-dione]", "pIC50": 8.05},
      {"smiles": "CCc1cccc(-n2c(=O)c3cnc4c(OC)cccc4c3n(C3CCCC3)c2=O)c1", "note": "[Example 75, 1-Cyclopentyl-3-(3-ethyl-phenyl)-7-methoxy-1H-pyrimido[5,4-c]quinoline-2,4-dione]", "pIC50": 8.22},
      {"smiles": "COc1cccc2c1ncc1c(=O)n(-c3cccc(C)c3)c(=O)n(C3CCC(C)CC3)c12", "note": "(stereo not drawn) [Example 78, 7-Methoxy-1-(4-methyl-cyclohexyl)-3-m-tolyl-1H-pyrimido[5,4-c]quinoline-2,4-dione]", "pIC50": 9.00},
      {"smiles": "COc1cccc2c1ncc1c(=O)n(-c3cccc(Cl)c3)c(=O)n(C3CCC(F)(F)CC3)c12", "note": "[Example 87, 3-(3-Chloro-phenyl)-1-(4,4-difluoro-cyclohexyl)-7-methoxy-1H-pyrimido[5,4-c]quinoline-2,4-dione]", "pIC50": 8.70},
      {"smiles": "COc1cccc2c1ncc1c(=O)n(-c3cccc(Cl)c3)c(=O)n(C3CCN(C(=O)OC(C)(C)C)CC3)c12", "note": "[Example 88, 4-[3-(3-Chloro-phenyl)-7-methoxy-2,4-dioxo-3,4-dihydro-2H-pyrimido[5,4-c]quinolin-1-yl]-piperidine-1-carboxylic acid tert-butyl ester]", "pIC50": 9.00},
      {"smiles": "COc1cccc2c1ncc1c(=O)n(-c3cccc(Cl)c3)c(=O)n(C3CCNCC3)c12", "note": "[Example 89, 3-(3-Chloro-phenyl)-7-methoxy-1-piperidin-4-yl-1H-pyrimido[5,4-c]quinoline-2,4-dione.dihydrochlode]", "pIC50": 8.30},
      {"smiles": "COc1cccc2c1ncc1c(=O)n(-c3cccc(Cl)c3)c(=O)n(C3CCN(C(C)=O)CC3)c12", "note": "[Example 90, 1-(1-Acetyl-piperidin-4-yl)-3-(3-chloro-phenyl)-7-methoxy-1H-pyrimido[5,4-c]quinoline-2,4-dione]", "pIC50": 8.70}
    ]}
  ]
}
